Values quoted from earlier work as cited in patent US20060039891A1, “Antineoplastic-dendritic polymer drug delivery system” (priority 2001, published 2006).

Tests used:
B16F10 S.C. tumor = settings: at maximum tolerated dose via I.V. administration
[1] = I.V. administration

In the case of `N.N.[Cl][Pt][Cl]` [cisplatin, cis-diamminedichloro platinate (II)], the “response of B16F10 tumor models” value (B16F10 S.C. tumor) is listed as “resistant” and the maximum tolerated dose [1] is listed as “about 1 mg/kg”.
